As a reminder, the Ki is a dissociation constant, usually derived from enzyme kinetics or from competition with a known ligand. Read a high Ki as weaker binding. For orientation: inhibition means the relative decrease from the control value, in per cent. Low values mean little suppression, high ones strong suppression.

One assay is filed under the species Homo sapiens. The assay can be described thus: Ratio of pKi for human cloned 5HT2A receptor to pKi for human cloned dopamine D2 receptor.
The target of assay [1] is 5-hydroxytryptamine receptor 2A (Homo sapiens, UniProt P28223). The assay can be described thus: Displacement of [3H]ketanserin from human cloned 5HT2A receptor. For orientation: Loss of bound radioactivity is the signal in a displacement assay; it reports binding, not function.
5-hydroxytryptamine receptor 2A, sequence (P28223 whole entry): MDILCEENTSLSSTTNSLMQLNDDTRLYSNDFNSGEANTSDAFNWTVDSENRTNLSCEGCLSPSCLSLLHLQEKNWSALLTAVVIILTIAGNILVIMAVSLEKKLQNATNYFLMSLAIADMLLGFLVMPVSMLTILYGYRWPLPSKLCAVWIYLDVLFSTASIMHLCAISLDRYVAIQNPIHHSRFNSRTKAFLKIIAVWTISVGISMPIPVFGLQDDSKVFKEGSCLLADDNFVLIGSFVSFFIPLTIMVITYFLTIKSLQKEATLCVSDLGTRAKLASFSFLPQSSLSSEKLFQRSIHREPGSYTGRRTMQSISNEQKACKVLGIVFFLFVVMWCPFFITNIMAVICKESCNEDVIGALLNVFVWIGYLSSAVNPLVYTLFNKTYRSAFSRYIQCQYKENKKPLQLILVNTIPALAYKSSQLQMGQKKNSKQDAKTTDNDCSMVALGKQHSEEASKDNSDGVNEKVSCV
The target of assay [2] is T1, 5-hydroxytryptamine receptor 2C (Homo sapiens, UniProt P28335).
T1 sequence (P28335 whole entry): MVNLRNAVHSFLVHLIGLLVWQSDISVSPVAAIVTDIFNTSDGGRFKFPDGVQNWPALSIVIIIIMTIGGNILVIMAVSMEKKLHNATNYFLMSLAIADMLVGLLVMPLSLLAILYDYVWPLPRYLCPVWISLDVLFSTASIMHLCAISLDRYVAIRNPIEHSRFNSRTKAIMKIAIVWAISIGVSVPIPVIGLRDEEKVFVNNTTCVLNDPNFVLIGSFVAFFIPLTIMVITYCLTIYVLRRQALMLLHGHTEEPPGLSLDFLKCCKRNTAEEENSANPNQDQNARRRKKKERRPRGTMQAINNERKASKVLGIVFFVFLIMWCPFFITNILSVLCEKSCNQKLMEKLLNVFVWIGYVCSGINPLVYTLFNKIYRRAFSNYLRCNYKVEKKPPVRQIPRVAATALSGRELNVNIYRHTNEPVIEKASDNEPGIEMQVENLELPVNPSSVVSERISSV
The assay can be described thus: Displacement of [3H]mesulergine from human 5HT2C receptor.

The next assay deals with D(3) dopamine receptor (Homo sapiens, UniProt P35462).
D(3) dopamine receptor, sequence (P35462 whole entry): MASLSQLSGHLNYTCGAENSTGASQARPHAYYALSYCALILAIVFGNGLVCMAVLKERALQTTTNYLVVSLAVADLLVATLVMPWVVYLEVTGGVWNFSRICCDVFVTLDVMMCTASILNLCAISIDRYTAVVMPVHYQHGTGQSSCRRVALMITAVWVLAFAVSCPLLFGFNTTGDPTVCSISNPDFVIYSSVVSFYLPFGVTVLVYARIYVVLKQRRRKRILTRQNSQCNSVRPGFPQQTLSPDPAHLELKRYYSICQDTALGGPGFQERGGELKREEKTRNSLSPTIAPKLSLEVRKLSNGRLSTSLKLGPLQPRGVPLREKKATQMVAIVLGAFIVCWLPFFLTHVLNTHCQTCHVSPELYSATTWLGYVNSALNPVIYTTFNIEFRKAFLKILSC
For another assay, the target named is D(1A) dopamine receptor (Homo sapiens, UniProt P21728).
D(1A) dopamine receptor, sequence (P21728 whole entry): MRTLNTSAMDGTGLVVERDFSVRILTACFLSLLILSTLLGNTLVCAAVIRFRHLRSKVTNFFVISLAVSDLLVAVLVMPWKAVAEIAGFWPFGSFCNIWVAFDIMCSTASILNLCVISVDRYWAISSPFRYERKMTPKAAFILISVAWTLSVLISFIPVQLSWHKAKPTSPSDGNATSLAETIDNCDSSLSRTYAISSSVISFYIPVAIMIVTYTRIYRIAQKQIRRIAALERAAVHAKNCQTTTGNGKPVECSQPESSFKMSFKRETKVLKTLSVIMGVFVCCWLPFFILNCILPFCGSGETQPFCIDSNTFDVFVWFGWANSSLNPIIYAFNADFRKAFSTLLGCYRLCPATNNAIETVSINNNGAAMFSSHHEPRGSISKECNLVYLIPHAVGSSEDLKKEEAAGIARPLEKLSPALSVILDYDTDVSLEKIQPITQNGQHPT
Assay [3] deals with D(2) dopamine receptor (Homo sapiens) (UniProt P14416). The assay can be described thus: Displacement of [3H]spiperone from human cloned dopamine D2 receptor at 10 uM.
D(2) dopamine receptor (Homo sapiens), sequence (P14416 whole entry): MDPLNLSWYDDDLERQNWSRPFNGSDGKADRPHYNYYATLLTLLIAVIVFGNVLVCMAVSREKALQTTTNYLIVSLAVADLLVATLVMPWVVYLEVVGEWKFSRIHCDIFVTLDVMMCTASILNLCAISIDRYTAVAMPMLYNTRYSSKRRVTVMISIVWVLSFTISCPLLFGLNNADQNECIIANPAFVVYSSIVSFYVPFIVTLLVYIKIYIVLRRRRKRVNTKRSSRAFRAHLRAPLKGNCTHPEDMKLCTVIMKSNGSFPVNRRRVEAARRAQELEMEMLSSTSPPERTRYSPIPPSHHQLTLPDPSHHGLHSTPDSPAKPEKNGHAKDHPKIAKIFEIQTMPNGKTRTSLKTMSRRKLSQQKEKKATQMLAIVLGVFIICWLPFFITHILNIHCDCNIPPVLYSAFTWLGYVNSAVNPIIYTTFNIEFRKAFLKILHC

Description for D(1A) dopamine receptor: Displacement of [3H]SCH23390 from human dopamine D1 receptor
Description for D(3) dopamine receptor: Displacement of [3H]spiperone from human dopamine D3 receptor

Turning to `O=C1CC(CN2CCC(C(=O)c3ccc(F)cc3)CC2)Cc2ncncc21` (stereo not drawn), in the assay filed under Homo sapiens, the Ratio pKi amounted to 1.05. In assay [1], affinity was put at a Ki of 309 nM.
In the case of `O=C1CC(CN2CCC(c3noc4cc(F)ccc34)CC2)Cc2ncncc21` (stereo not drawn), the Ratio pKi in the assay listed under Homo sapiens was 1.12. Moreover, the Ki in assay [2] was 501 nM; at D(3) dopamine receptor, 282 nM; at D(1A) dopamine receptor it was 135 nM; in assay [1] it was 23.4 nM.
`O=C1CC(CN2CCC(C(=O)c3ccc(F)cc3)CC2)Cc2nc(-c3ccccc3)ncc21` (stereo not drawn) showed a Ki in assay [1] of 631 nM. In assay [3], this compound came in with an inhibition below 60%.
Take `O=C1CC(CN2CCC(c3noc4cc(F)ccc34)CC2)Cc2nc(-c3ccccc3)ncc21` (stereo not drawn): the Ratio pKi in the assay listed under Homo sapiens was found to be 0.92. The same compound showed a Ki in assay [1] of 126 nM.
Consider `CSc1ncc2c(n1)CC(CN1CCC(c3noc4cc(F)ccc34)CC1)CC2=O` (stereo not drawn), for which the Ki in assay [2] is above 10000 nM; at D(3) dopamine receptor it was 44.7 nM; in assay [1] it was 4.57 nM.
As for `CNc1ncc2c(n1)CC(CN1CCC(C(=O)c3ccc(F)cc3)CC1)CC2=O` (stereo not drawn), in the assay filed under Homo sapiens, the Ratio pKi was determined as 1.23. The compound also showed a Ki in assay [1] of 6.46 nM.
In turn, `CSc1ncc2c(n1)CC(CN1CCC(C(=O)c3ccc(F)cc3)CC1)CC2=O` (stereo not drawn) had a Ki in assay [1] of 102 nM. Further, the inhibition in assay [3] is below 60%.
In the case of `CNc1ncc2c(n1)CC(CN1CCC(c3noc4cc(F)ccc34)CC1)CC2=O` (stereo not drawn), the Ratio pKi in the assay filed under Homo sapiens amounted to 1.18. Besides, the Ki in assay [2] is above 10000 nM; on D(3) dopamine receptor, 200 nM; at D(1A) dopamine receptor it was 42.7 nM; in assay [1], 2.4 nM.

Source of the values: ChEMBL document CHEMBL1154195, “Synthesis and binding affinity of potential atypical antipsychotics with the tetrahydroquinazolinone motif” (Bioorg Med Chem Lett, 2009).
